Paper PMC10458307, “New Scaffolds of Proteasome Inhibitors: Boosting Anticancer Potential by Exploiting the Synergy of In Silico and In Vitro Methodologies” (Pharmaceuticals, 2023)
Values joined by “and” are separate entries in the source; they are usually repeats but may differ in a detail not shown here. Equal entries are not always repeated.

What was measured:
[1] = biological target: T1, isolated human 20S proteasome, C-L activity (Homo sapiens, UniProt P28072+Q99436); assay: Proteasome inhibition assay in isolated human 20S proteasomes (Proteasome-Glo), C-L activity; assay type: biochemical; details: for inhibition at 10 µM: read-out: percentage of proteasome inhibition, C-L, isolated 20S proteasome; for percentage of proteasome inhibition, C-L, isolated human 20S proteasome: at 100 µM, Table 1 legend: bortezomib positive control 10 µM
T1 construct: human purified erythrocyte-derived 20S proteasome; purchased Enzo Life Sciences, Inc; host or cells: human erythrocytes (natural source)
Source text: In this assay, the peptide substrates are bound to aminoluciferin (Suc-LLVY-AML for CT-L activity, Z-nLPnLD-AML for C-L, and Z-LRR-AML for T-L), leading the cleavage of these substrates by the proteasome to the release of free aminoluciferin, which is the substrate of the buffer-contained luciferase.
To evaluate human purified erythrocyte-derived 20S proteasome inhibitory activity of the chosen compounds, the Proteasome-Glo™ 3-substrate system (Promega Corporation, Madison, WI, USA) was employed. The Proteasome-Glo™ reagents of the three proteolytic activities were prepared according to the manufacturer’s instructions, aliquoted, and stored at either −20 °C or 4 °C, avoiding freezing–thaw cycles. […] The purified 20S proteasome (Enzo Life Sciences, Inc., Farmingdale, NY, USA) was diluted in HEPES buffer 10 mM, pH 7.4, to a concentration experimentally adjusted to the signal/noise ratio obtained with each particular lot of Proteasome-Glo™ reagent, in order to have a good compromise between sensitivity and linear response. […] All assays were performed in white-walled multiwell plates (Thermo Scientific™ Sterilin™ White Microtiter™ plates, Thermo Fisher Scientific, Paisley, UK) in duplicates. The proteasome solution (25 μL) was added to each well first, then the diluted solutions of the assayed compounds (25 μL), and lastly the Proteasome-Glo™ Reagent (50 μL). […] Reagents were added to the plate well on ice, and the plate was then transferred to the plate luminometer (SpectraMax®, Molecular Devices, LLC, San Jose, CA, USA) set at 37 °C, gently mixed for 30 s, and the measurements were immediately started in kinetic mode, with data collected every 5 min for at least 60 min.
All compounds were dissolved in DMSO at a concentration of 10 mM and stored at −20 °C or 4 °C. Solutions of the test compounds were prepared at their adequate dilutions in 10 mM HEPES buffer pH 7.6 before each experiment.
To calculate the proteasome activity over time, the value of mean relative luminescence units (RLU) of blank wells at each respective time point was subtracted, and then the ratio between mean RLU of the sample and mean RLU of the positive control wells was calculated for each time point and expressed as percentage.

[2] = biological target: T2, 20S proteasome in HCT116 cell lysates, CT-L activity (Homo sapiens, UniProt P28074); assay: Proteasome inhibition assay in cell lysates, HCT116, CT-L; details: for percentage of proteasome inhibition, CT-L, cell lysates HCT116: at 100 µM; for percentage of proteasome inhibition, CT-L, cell lysates HCT116 / inhibition at 100 µM: Table 2 legend: bortezomib 10 µM; for inhibition at 100 µM: read-out: percentage of proteasome inhibition, CT-L, cell lysates HCT116, at 100 µM; for inhibition at 10 µM: read-out: percentage of proteasome inhibition, CT-L, cell lysates HCT-116, at 10 µM
T2 sequence (P28074 60-263): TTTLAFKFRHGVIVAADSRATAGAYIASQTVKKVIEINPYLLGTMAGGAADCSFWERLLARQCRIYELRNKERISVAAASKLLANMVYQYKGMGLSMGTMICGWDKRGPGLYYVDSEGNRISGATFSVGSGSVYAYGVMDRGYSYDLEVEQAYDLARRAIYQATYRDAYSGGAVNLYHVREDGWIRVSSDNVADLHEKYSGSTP
T2 sequence (P20618 29-241 partner): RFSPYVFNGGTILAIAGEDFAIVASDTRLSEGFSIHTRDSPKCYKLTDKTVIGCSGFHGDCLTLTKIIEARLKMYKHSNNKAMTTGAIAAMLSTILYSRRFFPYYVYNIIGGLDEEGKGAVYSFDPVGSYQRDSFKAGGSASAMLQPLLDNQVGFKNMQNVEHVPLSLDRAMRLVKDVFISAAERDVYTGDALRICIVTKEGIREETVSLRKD
Experimental: (§1) Cells were obtained from several cultured cell lines: Jurkat, K562, HT-29, and HCT116. Pellets with 20 × 10^6 cells were prepared and washed with cold sterile phosphate buffered saline (PBS), 1×, pH 7.4 (Gibco, Thermo Fisher Scientific, Paisley, UK). […] Cells were resuspended in buffer containing 50 mM TRIS-HCl pH 7.4 (Nzytech, Lisboa, Portugal), 5 mM MgCl2 (≥98% purity, Merck, Hamburg, Germany), 1 mM DTT (Merck, Hamburg, Germany), 2 mM ATP (≥98% purity, Enzo Life Sciences Inc., Farmingdale, NY, USA), and 250 mM saccharose (Merck, Hamburg, Germany). Glass beads (Merck, Hamburg, Germany) equivalent to the volume of the cell suspension were added, and the mixture was vortexed for 2 min at 4 °C. Beads and cell debris were removed using 5 min centrifugation at 1000× g and 4 °C, followed by 20 min of centrifugation at 10,000× g at 4 °C. Cell lysates containing proteasomes were resuspended in “activity buffer” [50 mM TRIS-HCl (pH 7.4), 5 mM MgCl2, 1 mM DTT, 2 mM ATP (≥98% purity, Enzo Life Sciences Inc., Farmingdale, NY, USA), and 500 µM EDTA (≥98% purity, Merck, Hamburg, Germany)]. Protein concentration was determined using the Pierce™ BCA protocol (Thermo Fisher Scientific, Rockford, IL, USA). […] DMSO was added in an equal volume as used for the untreated compounds as a way to assess/control its influence in the assay. Untreated cells were used as control. In each well of a 96-well plate, 25 µL of lysate were seeded in duplicate with 25 µL of the compound to test; in the control, 25 µL of activity buffer were added to the 25 µL of lysate. A blank (50 µL of activity buffer) was added to the wells in quadruplicate. Cell lysates, pre-treated or not with different concentrations of the test compounds, were incubated for 30 min at 37 °C. […] Stock solutions (10 mM) of each substrate were prepared in DMSO, diluted in activity buffer, and 50 µL were added to all wells (final concentration of each substrate = 100 µM), followed by an incubation at 37 °C for 60 min. Samples fluorescence was measured at an excitation wavelength of 360 nm and emission of 465 nm; the fluorescence measures were performed using the GloMax-Multi + Detection System (Promega Corp., Madison, WI, USA). Activity was evaluated in fluorescence units, after being converted to percentage of proteasome inhibition and, whenever possible, expressed as IC50 by plotting the inhibition data of each compound at different concentrations against the log of the concentration of the inhibitor, using the GraphPad Prism software version 7. At least eight different concentrations of the test compounds were used.

[3] = biological target: T3, 20S proteasome in Jurkat cell lysates, CT-L activity (Homo sapiens, UniProt P28074); assay: Proteasome inhibition assay in cell lysates, Jurkat, CT-L; details: for inhibition at 10 µM: read-out: percentage of proteasome inhibition, CT-L, cell lysates Jurkat, at 10 µM; for inhibition at 100 µM: read-out: percentage of proteasome inhibition, CT-L, cell lysates Jurkat, at 100 µM
T3 sequence (P28074 60-263): T2 sequence (P28074 60-263)
T3 sequence (P20618 29-241 partner): T2 sequence (P20618 29-241 partner)
Experimental: Cells were obtained from several cultured cell lines: Jurkat, K562, HT-29, and HCT116. Pellets with 20 × 10^6 cells were prepared and washed with cold sterile phosphate buffered saline (PBS), 1×, pH 7.4 (Gibco, Thermo Fisher Scientific, Paisley, UK). The preparation of the lysates from several cell lines was performed based on the methodology described by Gavioli et al. [67]. Cells were resuspended in buffer containing 50 mM TRIS-HCl pH 7.4 (Nzytech, Lisboa, Portugal), 5 mM MgCl2 (≥98% purity, Merck, Hamburg, Germany), 1 mM DTT (Merck, Hamburg, Germany), 2 mM ATP (≥98% purity, Enzo Life Sciences Inc., Farmingdale, NY, USA), and 250 mM saccharose (Merck, Hamburg, Germany). Glass beads (Merck, Hamburg, Germany) equivalent to the volume of the cell suspension were added, and the mixture was vortexed for 2 min at 4 °C. Beads and cell debris were removed using 5 min centrifugation at 1000× g and 4 °C, followed by 20 min of centrifugation at 10,000× g at 4 °C. Cell lysates containing proteasomes were resuspended in “activity buffer” [50 mM TRIS-HCl (pH 7.4), 5 mM MgCl2, 1 mM DTT, 2 mM ATP (≥98% purity, Enzo Life Sciences Inc., Farmingdale, NY, USA), and 500 µM EDTA (≥98% purity, Merck, Hamburg, Germany)]. Protein concentration was determined using the Pierce™ BCA protocol (Thermo Fisher Scientific, Rockford, IL, USA). […] DMSO was added in an equal volume as used for the untreated compounds as a way to assess/control its influence in the assay. Untreated cells were used as control. In each well of a 96-well plate, 25 µL of lysate were seeded in duplicate with 25 µL of the compound to test; in the control, 25 µL of activity buffer were added to the 25 µL of lysate. A blank (50 µL of activity buffer) was added to the wells in quadruplicate. Cell lysates, pre-treated or not with different concentrations of the test compounds, were incubated for 30 min at 37 °C. […] Stock solutions (10 mM) of each substrate were prepared in DMSO, diluted in activity buffer, and 50 µL were added to all wells (final concentration of each substrate = 100 µM), followed by an incubation at 37 °C for 60 min. Samples fluorescence was measured at an excitation wavelength of 360 nm and emission of 465 nm; the fluorescence measures were performed using the GloMax-Multi + Detection System (Promega Corp., Madison, WI, USA). Activity was evaluated in fluorescence units, after being converted to percentage of proteasome inhibition and, whenever possible, expressed as IC50 by plotting the inhibition data of each compound at different concentrations against the log of the concentration of the inhibitor, using the GraphPad Prism software version 7. At least eight different concentrations of the test compounds were used.

[4] = biological target: T4, 20S proteasome in HCT116 cell lysates, C-L activity (Homo sapiens, UniProt P28072); assay: Proteasome inhibition assay in cell lysates, HCT116, C-L; details: for percentage of proteasome inhibition, C-L, cell lysates HCT116: at 100 µM; for percentage of proteasome inhibition, C-L, cell lysates HCT116 / inhibition at 100 µM: Table 2 legend: bortezomib 10 µM, NI = No inhibition; for inhibition at 100 µM: read-out: percentage of proteasome inhibition, C-L, cell lysates HCT116, at 100 µM; for inhibition at 10 µM: read-out: percentage of proteasome inhibition, C-L, cell lysates HCT-116, at 10 µM
T4 sequence (P28072 35-239 limits assumed): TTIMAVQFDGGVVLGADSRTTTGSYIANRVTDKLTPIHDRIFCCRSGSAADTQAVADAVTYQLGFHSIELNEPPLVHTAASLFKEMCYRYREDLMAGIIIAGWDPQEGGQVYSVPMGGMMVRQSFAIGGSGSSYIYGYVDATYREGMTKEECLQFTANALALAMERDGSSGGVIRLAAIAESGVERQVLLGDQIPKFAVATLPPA
T4 sequence (Q99436 44-277 partner): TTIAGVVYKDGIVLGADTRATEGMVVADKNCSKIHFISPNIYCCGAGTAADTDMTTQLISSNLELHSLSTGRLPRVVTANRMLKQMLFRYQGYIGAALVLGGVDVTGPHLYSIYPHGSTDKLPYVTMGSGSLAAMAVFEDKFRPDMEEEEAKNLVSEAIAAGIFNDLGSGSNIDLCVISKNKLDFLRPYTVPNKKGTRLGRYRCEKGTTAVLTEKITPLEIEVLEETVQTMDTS
Experimental: as §1

[5] = biological target: T5, 20S proteasome in HT-29 cell lysates, C-L activity (Homo sapiens, UniProt P28072); assay: Proteasome inhibition assay in cell lysates, HT-29, C-L; details: for inhibition at 10 µM: read-out: percentage of proteasome inhibition, C-L, cell lysates HT-29, at 10 µM; for inhibition at 100 µM: read-out: percentage of proteasome inhibition, C-L, cell lysates HT-29, at 100 µM
T5 sequence (P28072 35-239 limits assumed): T4 sequence (P28072 35-239 limits assumed)
T5 sequence (Q99436 44-277 partner): T4 sequence (Q99436 44-277 partner)
Experimental: as §1

[6] = biological target: T6, 20S proteasome in Jurkat cell lysates, C-L activity (Homo sapiens, UniProt P28072); assay: Proteasome inhibition assay in cell lysates, Jurkat, C-L; details: for inhibition at 10 µM: read-out: percentage of proteasome inhibition, C-L, cell lysates Jurkat, at 10 µM; for inhibition at 100 µM: read-out: percentage of proteasome inhibition, C-L, cell lysates Jurkat, at 100 µM
T6 sequence (P28072 35-239 limits assumed): T4 sequence (P28072 35-239 limits assumed)
T6 sequence (Q99436 44-277 partner): T4 sequence (Q99436 44-277 partner)
Experimental: as §1

[7] = at 100 µM, Table 2 legend: bortezomib 10 µM
[8] = Table 2 legend: bortezomib 10 µM

| Structure (SMILES) | inhibition at 10 µM [1] | percentage of proteasome inhibition, C-L, isolated human 20S proteasome [1] | percentage of proteasome inhibition, CT-L, cell lysates HCT116 [2] | percentage of proteasome inhibition, CT-L, cell lysates Jurkat [3, 7] | percentage of proteasome inhibition, C-L, cell lysates HCT116 [4] | percentage of proteasome inhibition, C-L, cell lysates HT-29 [5, 7] | percentage of proteasome inhibition, C-L, cell lysates Jurkat [6, 7] | IC50 [2] | inhibition at 100 µM [2] | inhibition at 10 µM [2] | inhibition at 10 µM [3] | inhibition at 100 µM [3, 8] | IC50 [4] | inhibition at 100 µM [4] | inhibition at 10 µM [4] | IC50 [5] | inhibition at 10 µM [5] | inhibition at 100 µM [5, 8] | inhibition at 10 µM [6] | inhibition at 100 µM [6, 8] | further results |
| --- | --- | --- | --- | --- | --- | --- | --- | --- | --- | --- | --- | --- | --- | --- | --- | --- | --- | --- | --- | --- | --- |
| CC(C)C[C@H](NC(=O)[C@H](Cc1ccccc1)NC(=O)c1cnccn1)B(O)O [Bortezomib, bortezomib, reference compound] | 33.8% | 92.80% and 93% | 99.14% and 99% | 99.30% and 99% | 99% | 99.05% and 99% | 94.22% and 94% |  |  |  |  |  |  |  |  |  |  |  |  |  | percentage of proteasome inhibition, CT-L, cell lysates HCT-116 ([2]; at 10 µM): 97.94%; percentage of proteasome inhibition, CT-L, cell lysates Jurkat ([3]; at 10 µM): 99.63%; percentage of proteasome inhibition, C-L, cell lysates HCT-116 ([4]; at 10 µM): 94.21%; percentage of proteasome inhibition, C-L, cell lysates HT-29 ([5]; at 10 µM): 92.93%; percentage of proteasome inhibition, C-L, cell lysates Jurkat ([6]; at 10 µM): 92.00% |
| Cc1ccc2ccccc2c1CSc1ncnc2c1ncn2C1OC(CO)C(O)C1O (stereo not shown) [Compound 1] | 0% | 54.47% and 55% | 90% | 54% | 71% | 76% | 19% | 76.4 µM | 90.2% | 0% | 0% | 53.5% | 75.6 µM | 71.2% | 0% | 79.4 µM | 0% | 76% | 2.27% | 19.4% |  |
| O=C1c2ccccc2C(=O)c2c(Nc3ccc(S(=O)(=O)N(CCO)CCO)cc3)ccc(O)c21 [Compound 2] | 90.8% | 97.86% and 98% | 74% | 72% | 74% | 69% | 74% | 50.9 µM | 74.2% | 6.93% | 8.23% | 72.1% | 43.5 µM | 74.1% | 11.1% | 62.1 µM | 6.78% | 69.2% | 26.9% | 73.5% | IC50 [3]: 73.2 µM; IC50 [6]: 42.4 µM |
| CC(C)c1nc(CN(C)C(=O)N[C@@H](CCN2CCOCC2)C(=O)N[C@H](CC[C@H](Cc2ccccc2)NC(=O)OCc2cncs2)Cc2ccccc2)cs1 [Compound 5, cobicistat, reference compound] | 0% | 33.57% and 34% | 67% | 64% | 28% | 29% | 36% | 95.9 µM | 66.9% | 0% | 0% | 63.7% |  | 28.1% | 0% |  | 0% | 29.3% | 0% | 36.2% |  |

The next lines start with results.

| inhibition at 10 µM [1] | percentage of proteasome inhibition, C-L, isolated human 20S proteasome [1] | percentage of proteasome inhibition, CT-L, cell lysates HCT116 [2] | percentage of proteasome inhibition, CT-L, cell lysates Jurkat [3, 7] | percentage of proteasome inhibition, C-L, cell lysates HCT116 [4] | percentage of proteasome inhibition, C-L, cell lysates HT-29 [5, 7] | percentage of proteasome inhibition, C-L, cell lysates Jurkat [6, 7] | IC50 [2] | inhibition at 100 µM [2] | inhibition at 10 µM [2] | inhibition at 10 µM [3] | inhibition at 100 µM [3, 8] | IC50 [4] | inhibition at 100 µM [4] | inhibition at 10 µM [4] | IC50 [5] | inhibition at 10 µM [5] | inhibition at 100 µM [5, 8] | inhibition at 10 µM [6] | inhibition at 100 µM [6, 8] | Structure (SMILES) | further results |
| --- | --- | --- | --- | --- | --- | --- | --- | --- | --- | --- | --- | --- | --- | --- | --- | --- | --- | --- | --- | --- | --- |
| 9.9% | 88.38% and 88% | 33% | 33% |  | 19% | 25% |  | 33% | 0% | 0% | 32.8% |  | 0% | 0% |  | 0% | 18.6% | 0% | 25.4% | Cc1ccc(/C(=N/NS(=O)(=O)c2ccc([N+](=O)[O-])cc2)Sc2cc(Cl)c(C)cc2S(N)(=O)=O)cc1 [Compound 3] |  |
| 5.8% | 77.65% and 78% | 98% |  | 90% | 82% | 99% | 35.7 µM | 98% | 22.1% | 10.5% | 98% | 28.9 µM | 90.1% | 69.2% | 35.2 µM | 0% | 82.1% | 8.16% | 98.9% | C#CCCN1CCN(c2ccc(-n3c(=O)ccc4cnc5ccc(-c6ccc(N)nc6)cc5c43)cc2C(F)(F)F)CC1 [Compound 4, 9-(6-Aminopyridin-3-yl)-1-(4-(4-(but-3-yn-1-yl)piperazin-1-yl)-3-(trifluoromethyl)phenyl)benzo[h][1,6]naphthyridin-2(1H)-one] | IC50 [3]: 24.3 µM; IC50 [6]: 27 µM |
